Measured values taken from publication PMC6843445, “Pharmacokinetic Properties of Fluorescently Labelled Hydroxypropyl-Beta-Cyclodextrin” (Biomolecules, 2019).

Tests used:
[1] = In vivo and ex vivo fluorescence imaging; set-up: species or system Male BALB/c mice; conditions: mice, i.v.
Description: Male BALB/c mice (22–25 g) were bred and maintained in normal watering and feeding conditions in a Laboratory Animal Husbandry Facility, equipped with IVC (individually ventilated cages), controlled atmosphere-temperature, humidity and lighting (Vasile Goldis Western University, Arad, Romania). All experimental procedures were performed in compliance with the appropriate laws and institutional guidelines, and were approved by the Institutional Ethics Committee of Vasile Goldiș Western University of Arad (Arad, Romania). FITC-HPBCD (0.5 and 2.5 mg), dissolved in 0.1 mL saline solution was injected into the femoral vein of mice under general anaesthesia. Maintaining the surgical plane of anesthesia, mice were placed into an in vivo imaging system (In-vivo Xtreme, Carestream, Carestream Health Inc. USA). At 5, 15, 30, 45 and 60 min, fluorescence and X-ray images were recorded of the animals. After 30 or 60 min, the blood vessels of some animals were perfused by warm saline solution and their organs (livers, lungs, kidneys, spleens and brains) were removed for ex vivo imaging (excitation: 480 nm, emission: 535 nm).

[2] = Tissue accumulation in the supernatant of tissue homogenates ex vivo; set-up: species or system BALB/c male mice; conditions: mice, i.v., after 60 min
Description: After the last blood sample collection, six animals were anaesthetized, and their blood vessels were perfused by warm saline solution. Finally, all mice were sacrificed, and the organs were removed from the six saline-perfused mice for further analysis. The collected organs (livers, lungs, kidneys, spleens, hearts and brains) were homogenized by adding 0.8 mL saline solution and the homogenates were centrifuged at 10,000 rpm for 20 min at 4 °C. From each sample, 0.1 mL of supernatant was placed into black 96-well plates and the fluorescence intensities were measured by microplate reader as described above. The lower limit of quantification of FITC-HPBCD in mouse plasma and organ homogenates was 0.25 µg/mL. The protein content of the tissue samples was determined by PierceTM BCA protein assay (Thermo Scientific, Rockford, IL, USA) according to the manufacturer’s instruction. FITC-HPBCD content of the samples was normalized to the tissue protein content. The animals were maintained in accordance with the Guidelines for the Care and Use of Laboratory Animals; experiments were approved by the Animal Care Committee of the University of Debrecen (permission no. 12/2014).

[3] = In vivo pharmacokinetic investigation, plasma FITC-HPBCD after i.v. administration; set-up: species or system BALB/c male mice; conditions: for CL: clearance = terminal ke × Vd1; for CL / ke (1–15 min) / t1/2 (1–15 min) / t1/2 (15–30 min) / t1/2 (30–60 min) / ke (15–30 min) / t1/2 (15–45 min) / t1/2 (45–60 min) / ke (15–45 min) / kc (1–15 min) / ke (30–60 min) / ke (45–60 min) / Vd: dose 250 µg; for ke (1–15 min): elimination rate constant; for ke (1–15 min) / ke (15–30 min) / ke (15–45 min) / kc (1–15 min) / ke (30–60 min) / ke (45–60 min): in min-1 (unit assumed); for t1/2 (1–15 min) / t1/2 (15–30 min) / t1/2 (30–60 min) / t1/2 (15–45 min) / t1/2 (45–60 min): in min; for Vd at 1 min of sampling: n = 6; for kc (1–15 min): rate constant of compartmentalization; for ke (30–60 min) / ke (45–60 min): terminal phase; for Vd: volume of distribution at 1 min
Description: Twelve BALB/c male mice (23–25 g) were involved in the study. 0.25 mg FITC-HPBCD, dissolved in 0.2 mL saline solution was injected into the lateral tail vein of each mouse. Blood samples were collected from the orbital sinus from six mice after 1, 15, 30 and 60 min and at 1, 15, 45 and 60 min from other six mice by the same sampling method. Blood samples were incubated for 1 h at 37 °C and centrifuged for 8 min at 1700 rpm to separate blood plasma. Aliquots of plasma from the samples were placed into black 96-well plates and their fluorescence intensities were measured by a FLUOstar Optima microplate reader (BMG LABTECH, Offenburg, Germany; 492 nm excitation and 520 nm emission wavelengths) and the plasma FITC-HPBCD concentrations were calculated.
The two compartment model was characterized by the following equations:(3) Ct=C^′×e^−kc×t+C^″×e^−ke×t (4) C0=C^′+C^″ where ke is the elimination rate constant of FITC-HPBCD determined from data of the terminal phase (ke(30-60 min) or ke(45-60 min)); t1/2 is the half-life of FITC-HPBCD calculated from the corresponding ke values; CL is the clearance of FITC-HPBCD; Vd is the volume of distribution of FITC-HPBCD determined from data related to the first minute (Vd1); Ct is the plasma concentration of FITC-HPBCD at “t”; C′ and C″ are the two components of the initial plasma concentration of FITC-HPBCD representing the amount of FITC-HPBCD that will be compartmentalized and eliminated, respectively.

HUVECs = test: Intracellular FITC-HPBCD accumulation, fluorescence microscopy; type: cell-based, Human; conditions: 50 µM, 30 min, 37 °C
Description: Human umbilical vein endothelial cells (HUVECs) were removed from umbilical veins by exposure to dispase (0.2% in Hank’s balanced salt solution) and cultured in gelatin-coated flasks in medium 199 containing 15% foetal bovine serum (FBS), antibiotics, L-glutamine, sodium pyruvate and endothelial cell growth supplement from bovine pituitary. For the fluorescent microscopic experiments, cells were seeded onto gelatin-coated round glass coverslips and maintained in medium until the treatments.
HUVECs, cultured on gelatin-coated glass coverslips were washed twice with Hank’s Balanced Salt Solution (HBSS) and treated with 50 µM FITC-HPBCD for 30 min at 37 °C. Cells were washed five times with ice-cold HBSS and fixed with 3% paraformaldehyde for 15 min. After fixation cells were washed with HBSS and the nuclei were stained with Hoechst 33,342 at the final concentration of 300 nM. Cells were washed again and mounted on microscope slides. […] Images were analyzed with ZEN 2012 v.1.1.0.0. software (Carl Zeiss Microscopy GmbH, Göttingen, Germany)

[4] = mice, i.v., Group F, sampling 1, 15, 30 and 60 min
[5] = mice, i.v., Group F, sampling 1, 15, 45 and 60 min
[6] = mice, i.v., Group NF, sampling 1, 15, 30 and 60 min
[7] = mice, i.v., Group NF, sampling 1, 15, 45 and 60 min

## 6-deoxy-6-[(5/6)-fluoresceinylthioureido]-(2-hydroxypropyl)-β-cyclodextrin [FITC-HPBCD]
[1]; 0.5 mg
  ex vivo fluorescence of lungs vs untreated control, separated imaging: higher ex vivo fluorescence
[1]; 0.5 mg and 2.5 mg/animal, images at 5-60 min
  in vivo whole-body fluorescence distribution: distributed over the entire body of the animals
[1]; 0.5 mg, after 30 min
  ex vivo fluorescence of kidneys: relative higher fluorescence
[1]; 2.5 mg/animal
  ex vivo fluorescence of kidneys: especially high fluorescence
  ex vivo fluorescence of lung: elevated intensity
[1]; 2.5 mg/animal, every organ (livers, lungs, kidneys, spleens, brains)
  ex vivo fluorescence of organs vs control: higher fluorescence intensities
[1]; 30 and 45 min, urinated out at 60 min
  in vivo fluorescence of the bladder: accumulated in the bladder
[1]; after 60 min
  ex vivo fluorescence of brains vs untreated: no difference
[1]; both doses (0.5 and 2.5 mg), after 30 min, separated examination
  ex vivo fluorescence of brains vs untreated: higher fluorescence than the untreated ones
[2]
  fluorescence intensities in the supernatant of liver, lung, spleen, heart and brain homogenates: not elevated
[2]; normalized to tissue protein content
  fluorescence intensity in the supernatant of kidney homogenates: significant fluorescence
[3]; [4]
  CL: 0.11 ± 0.15 mL/min
  ke (1–15 min): 0.092 ± 0.023
  t1/2 (15–30 min): 7.54 ± 0.52
  t1/2 (30–60 min): 122.3 ± 109.4
  ke (15–30 min): 0.092 ± 0.007
  kc (1–15 min): 0.109 ± 0.026
  ke (30–60 min): 0.022 ± 0.029
  Vd: 4.86 ± 0.21 mL
[3]; [5]
  CL: 0.23 ± 0.08 mL/min
  ke (1–15 min): 0.095 ± 0.017
  t1/2 (1–15 min): 7.5 ± 1.13
  t1/2 (15–45 min): 13.55 ± 1.45
  t1/2 (45–60 min): 20.06 ± 3.89
  ke (15–45 min): 0.052 ± 0.007
  kc (1–15 min): 0.142 ± 0.033
  ke (45–60 min): 0.036 ± 0.008
  Vd: 6.25 ± 0.77 mL
[3]; [6]
  CL: 0.25 ± 0.15 mL/min
  ke (1–15 min): 0.115 ± 0.017
  t1/2 (15–30 min): 35.01 ± 10.15
  t1/2 (30–60 min): 16.61 ± 7.12
  ke (15–30 min): 0.022 ± 0.009
  ke (30–60 min): 0.049 ± 0.020
  Vd: 4.70 ± 1.27 mL
[3]; [7]
  CL: 0.69 ± 0.38 mL/min
  ke (1–15 min): 0.107 ± 0.006
  t1/2 (1–15 min): 6.50 ± 0.31
  t1/2 (15–45 min): 13.36 ± 3.05
  t1/2 (45–60 min): 8.99 ± 4.54
  ke (15–45 min): 0.054 ± 0.013
  ke (45–60 min): 0.095 ± 0.044
  Vd: 7.01 ± 0.81 mL
[3]; mice, i.v., all animals n = 12
  Vd at the first minute, average: 5.7 ± 1.34 mL
[3]; mice, i.v., Group F (followed two-compartment model), sampling 1, 15, 30 and 60 min
  t1/2 (1–15 min): 7.82 ± 1.48
[3]; mice, i.v., Group NF (did not follow model), sampling 1, 15, 30 and 60 min
  t1/2 (1–15 min): 6.13 ± 0.78
[3]; mice, i.v., group following the model
  Vd at 1 min of sampling: 5.55 ± 0.98 mL
[3]; mice, i.v., group not following the model
  Vd at 1 min of sampling: 5.85 ± 1.72 mL
[3]; mouse, in vivo, iv
  i.v. administered FITC-HPBCD eliminated from mice within 60 min: 96.58 ± 2.6%
HUVECs
  cellular localization by fluorescence microscopy: detected in the cytoplasm of HUVECs in small green vesicles
